Experimental data taken from BindingDB's records for patent US20250236609 (Deciphera Pharmaceuticals, 2025).
pIC50: −log10 of the molar value.

Biological target: Phosphatidylinositol 3-kinase catalytic subunit type 3 (Homo sapiens, UniProt Q8NEB9)
Experiment: Biochemical Assay for VPS34
Protocol: Activity of VPS34 kinase was determined using an ADP-Glo kinase activity assay (Promega Corp). Assays were conducted in 384-well plates (5 μL assay volume) using 25 nM VPS34 (ThermoFisher Scientific), […] PI:3PS Lipid Kinase Substrate (Promega Corp.), and 1 mM ATP in kinase buffer. Inhibition of VPS34 was measured by adding serial diluted test compound (final assay concentration of 0.1% DMSO) followed by a 1-hour incubation at 37° C. ADP-Glo reagent was then added […] followed by a 40 min incubation at rt. Kinase detection reagent was then added […] and followed by a 60 min incubation at rt. Luminescence was then detected. The RLU at each compound concentration of was converted to percent inhibition using controls (i.e., reaction with no test compound and reaction with a known inhibitor) and IC50 values were calculated by fitting a four-parameter sigmoidal curve to the data using GeneData Screener software.

Sequence of Phosphatidylinositol 3-kinase catalytic subunit type 3 (Q8NEB9 whole entry): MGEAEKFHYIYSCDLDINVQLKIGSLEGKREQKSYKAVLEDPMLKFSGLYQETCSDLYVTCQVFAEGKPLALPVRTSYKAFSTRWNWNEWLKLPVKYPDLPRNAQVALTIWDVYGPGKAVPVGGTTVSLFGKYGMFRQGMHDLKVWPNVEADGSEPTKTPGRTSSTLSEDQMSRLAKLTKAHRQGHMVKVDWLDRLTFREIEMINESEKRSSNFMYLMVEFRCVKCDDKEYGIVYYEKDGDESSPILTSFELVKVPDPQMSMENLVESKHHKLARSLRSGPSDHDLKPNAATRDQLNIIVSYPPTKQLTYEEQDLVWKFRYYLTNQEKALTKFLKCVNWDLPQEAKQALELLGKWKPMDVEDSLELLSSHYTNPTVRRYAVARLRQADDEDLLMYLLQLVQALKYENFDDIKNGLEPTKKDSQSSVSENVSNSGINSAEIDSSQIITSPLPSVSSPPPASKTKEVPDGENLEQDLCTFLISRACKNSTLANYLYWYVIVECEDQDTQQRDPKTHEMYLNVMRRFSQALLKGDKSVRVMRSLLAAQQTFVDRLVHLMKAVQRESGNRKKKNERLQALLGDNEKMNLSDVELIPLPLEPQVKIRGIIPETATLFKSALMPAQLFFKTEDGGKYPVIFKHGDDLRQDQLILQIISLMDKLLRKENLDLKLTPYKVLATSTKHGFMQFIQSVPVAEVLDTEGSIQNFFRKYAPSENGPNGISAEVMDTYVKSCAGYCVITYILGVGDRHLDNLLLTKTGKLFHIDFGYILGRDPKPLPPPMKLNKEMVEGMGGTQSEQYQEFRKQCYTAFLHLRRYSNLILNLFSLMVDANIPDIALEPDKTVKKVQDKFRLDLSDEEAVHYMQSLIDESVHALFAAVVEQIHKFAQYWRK

pIC50: > 7.00
SMILES: COC(=O)Nc1cc(-c2cc(-c3cnccc3C(F)(F)F)[nH]c(=O)c2)c(C)cn1 [US20250236609, Example 4]
